pIC50: −log10 of the molar value.
molecular target: T1, FBXL10 (Homo sapiens, UniProt Q8NHM5); experiment: FBXL10 in vitro enzyme inhibition assay (AlphaScreen); type: biochemical; conditions: 0.3 nM FBXL10, 30 nM H3K36me2-biotin peptide, 0.2 μM alpha-ketoglutaric acid
T1 construct: purchased BPS Bioscience 50120
T1 sequence (Q8NHM5 1-650): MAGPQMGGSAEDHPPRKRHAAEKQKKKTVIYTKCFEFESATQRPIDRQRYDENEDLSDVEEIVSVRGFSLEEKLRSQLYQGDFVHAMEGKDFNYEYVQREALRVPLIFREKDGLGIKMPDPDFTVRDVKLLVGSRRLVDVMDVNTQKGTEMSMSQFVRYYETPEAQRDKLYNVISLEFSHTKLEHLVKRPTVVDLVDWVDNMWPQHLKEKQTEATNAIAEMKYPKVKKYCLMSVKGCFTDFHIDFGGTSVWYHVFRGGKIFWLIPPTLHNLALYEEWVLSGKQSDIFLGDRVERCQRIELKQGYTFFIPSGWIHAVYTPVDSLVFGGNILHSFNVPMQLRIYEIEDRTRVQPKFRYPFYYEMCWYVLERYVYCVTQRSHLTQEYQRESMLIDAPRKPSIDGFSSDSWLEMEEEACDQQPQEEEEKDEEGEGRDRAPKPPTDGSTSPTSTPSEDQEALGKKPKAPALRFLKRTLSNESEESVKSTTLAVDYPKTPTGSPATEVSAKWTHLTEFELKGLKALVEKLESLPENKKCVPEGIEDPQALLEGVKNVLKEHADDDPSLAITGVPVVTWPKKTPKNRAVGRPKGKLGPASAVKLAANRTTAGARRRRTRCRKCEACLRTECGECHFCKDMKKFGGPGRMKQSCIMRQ
Text: This assay determines the ability of a test compound to inhibit FBXL11, FRXL10, and PHF8 demethylase activity. Baculovirus-expressed FBXL11 (GenBank Accession # NM_012308, AA1-1162) was purchased from BPS Bioscience (Cat #50102). Baculovirus-expressed FBXL10 (GenBank Accession # NM_032590, AA 1-650) was purchased from BPS Bioscience (Cat #50120), Baculovirus-expressed PHF8 (GenBank Accession NP_055922.1) was purchased from Active Motif (Cat #31435).
The ability of test compounds to inhibit the activity of FBXM10 was determined in 384-well plate format under the following reaction conditions: 0.3 nM FBXL10, 30 nM H3K36me2-biotin labeled peptide (Anaspec cat #64442), 0.2 μM alpha-ketoglutaric acid in assay buffer of 50 mM HEPES, pH 7.3, 0.005% Brij35, 0.5 mM TCEP, 0.2 mg/ml BSA, 50 μM sodium L-ascorbate, 5 μM ammonium ironll sulfate. Reaction product was determined quantitatively by AlphaScreen detection after the addition of detection reagents anti-H3K36me1 antibody, AlphaScreen® Streptavidin-coated Donor beads, and AlphaScreen® Protein A Acceptor beads in 50 mM HEPES, pH 7.3, 10 mM NaCl, 0.005% Brij35, 5 mM EDTA, 2 mg/ml BSA to a final 10 μg/ml beads.
The assay reaction was initiated by the following: 3 μl of the mixture of 90 nM H3K36me2-biotin labeled peptide and 0.6 μM alpha-ketoglutaric acid with 3 μl of 11-point serial diluted inhibitor in 3% DMSO were added to each well of 384-well Proxiplate (Perkin Elmer), followed by e addition of 3 μl of 0.9 nM FBXL10 to initiate the reaction. The reaction mixture was incubated at room temp for 1 hr. and terminated by the addition of 3 μl of appropriate dilution of anti-H3K36me1 antibody in 50 mM HEPES, pH 7.3, 10 mM NaCl, 0.005% Brij35, 5 mM EDTA, and 2 mg/ml BSA. […] Plates were read by EnVision Multilabel Reader in AlphaScreen mode after minimum 2 hr incubation at room temp. […]
The ability to inhibit demethylase activity was quantified and the respective IC50 value was determined for substituted triazolylpyridine derivative compounds. […]

Row | pIC50 | SMILES
1 | 6.00 to 7.00 | Fc1cnccc1-c1nn[nH]c1C(F)(F)F [Example 1, 3-fluoro-4-[5-(trifluoromethyl)-1H-1,2,3-triazol-4-yl]pyridine]
2 | 5.00 to 6.00 | Fc1ccc(Cl)cc1Nc1cnccc1-c1nn[nH]c1C(F)(F)F [Example 2, N-(5-chloro-2-fluorophenyl)-4-[5-(trifluoromethyl)-1H-1,2,3-triazol-4-yl]pyridin-3-amine]
3 | 5.00 to 6.00 | FC(F)(F)c1[nH]nnc1-c1ccncc1NCC1CCCc2ccccc21 (stereo not drawn) [Example 3, N-[(1,2,3,4-tetrahydronaphthalen-1-yl)methyl]-4-[5-(trifluoromethyl)-1H-1,2,3-triazol-4-yl]pyridine-3-amine]

Reference: patent US10870634B2, “Histone demethylase inhibitors” (CELGENE QUANTICEL RESEARCH, INC., priority 2016, dated 2020)
